# From US20170281651A1, “CONCOMITANT ADMINISTRATION OF GLUCOCORTICOID RECEPTOR MODULATORS AND CYP3A OR STEROIDOGENESIS INHIBITORS” (Corcept Therapeutics, Inc., priority 2017, published 2017)
# “And” between values parts separate entries of the source, which are not always exact repeats. Equal values may be shown once.
# How the values were obtained:
# [1] = Examples 4-7: liver function of a patient with excess cortisol switched to reduced mifepristone dose plus ketoconazole; assay type: in vivo, human
# [2] = Example 3: Phase 1 study of ketoconazole 200 mg twice daily with mifepristone 600 mg once daily with food, plasma PK incl. cross-study comparison; assay type: in vivo, human
# [3] = Test: Day 17 600 mg mifepristone OD + 200 mg Ketoconazole BID, Reference: Day 12 600 mg mifepristone OD
# [4] = Test: Present Study Day 17 600 mg mifepristone OD + 200 mg Ketoconazole BID, Reference: Historic Study Day 7 1200 mg mifepristone OD alone, after 34% fat meal
compound,measurement,setting,value
"CC#C[C@]1(O)CC[C@H]2[C@@H]3CCC4=CC(=O)CCC4=C3[C@@H](c3ccc(N(C)C)cc3)C[C@@]21C [mifepristone, 11β-(4-dimethylaminophenyl)-17β-hydroxy-17α-(1-propynyl)-estra-4,9-dien-3-one]",liver function of the patient,[1]; daily dose reduced from 600 mg to 300 mg with concomitant ketoconazole,not significantly compromised
same,liver function of the patient,[1]; daily dose reduced from 900 mg to 600 mg with concomitant ketoconazole,not significantly compromised
same,liver function of the patient,[1]; daily dose reduced from 1200 mg to 900 mg with concomitant ketoconazole,not significantly compromised
same,liver function of the patient,[1]; daily dose reduced from 1500 mg to 1200 mg with concomitant ketoconazole,not significantly compromised
same,exposure as percent of that following the highest labeled dose (1200 mg daily),[2]; 600 mg mifepristone once daily with 200 mg ketoconazole twice daily,approximately 85%
same,effect of ketoconazole on exposure (90% CI vs standard 80:125 interval),[2]; Day 17 vs Day 12,increased
same,difference of time 0 (pre-dose) plasma concentration,"[2]; Day 17 vs Day 12, FIG. 2",~500 ng/mL
same,concentrations on Day 17 compared with Day 12,"[2]; Day 17 with 200 mg ketoconazole twice daily, Day 12 mifepristone alone",higher
same,AUC0-24 Ratio % Test/Reference (geometric mean ratio),[2]; [3],138.01%
same,Cmax Ratio % Test/Reference (geometric mean ratio),[2]; [3],127.59%
same,"AUC0-24 Ratio % Test/Ref (cross-study, geometric mean ratio)",[2]; [4],87.27% and 87%
same,"Cmax Ratio % Test/Ref (cross-study, geometric mean ratio)",[2]; [4],84.64%
same,"AUC0-24 Ratio % Test/Ref (cross-study, geometric mean ratio)","[2]; Test: Present Study Day 17 600 mg mifepristone OD + 200 mg Ketoconazole BID, Reference: Historic Study Day 7 1200 mg mifepristone OD alone, after 34% fat meal, listed as Mifepristone",87.27%
same,exposure less than that of 1200 mg mifepristone in the absence of ketoconazole,[2]; mifepristone 600 mg co-administered with ketoconazole,13-15%
